Data as given in paper PMC7823860, “Flavonoid Glycosides with a Triazole Moiety for Marine Antifouling Applications: Synthesis and Biological Activity Evaluation” (Marine Drugs, 2020).
“And” between values parts separate entries of the source, which are not always exact repeats. Identical values can stand only once. Like-named read-outs stand apart in the source and are kept apart here.

Legend:
Artemia salina nauplii [1] = experiment: Artemia salina nauplii lethality (ecotoxicity) bioassay; format: in vivo; details: 25 and 50 μM, 48 h of exposure
Experimental: The brine shrimp (Artemia salina) nauplii lethality test was used to determine the toxicity of promising AF compounds to non-target organisms. Artemia salina eggs were allowed to hatch in seawater for 48 h at 25 °C. Bioassays were performed in 96-wells microplates with 15–20 nauplii per well and 200 μL of the compounds test solution. Compounds were tested at final concentrations of 25 and 50 μM (filtered seawater with 1% DMSO). All tests included K2Cr2O7 (13.6 μM) as positive control and DMSO (1%) as negative control. Bioassays were run in the dark at 25 °C, and the percentage of mortality was determined after 48 h of exposure.

[2] = Mussel (Mytilus galloprovincialis) larvae anti-settlement bioassay; format: in vivo; details: in vivo, mussel plantigrade larvae, read-out: LC50 (median lethal dose)
Experimental: (§1) Mussel (Mytilus galloprovincialis) plantigrades were collected in juvenile aggregates during low neap tides at Memória beach, Matosinhos, Portugal (41°13′59″ N; 8°43′28″ W). In laboratory, mussel plantigrade larvae (0.5–2 mm) were isolated in a binocular magnifier (Olympus SZX2-ILLT, Tokyo, Japan) to a petri dish with filtered seawater, and those with functional foot and competent exploring behaviour were selected for the bioassays. The flavonoids were screened at 50 µM in 24-well microplates with 4 well replicates per condition and 5 larvae per well, for 15 h, in the darkness at 18 ± 1 °C, following Almeida et al. (2015). Test solutions were obtained by dilution of the compounds stock solutions (50 mM) in DMSO and prepared with filtered seawater. All bioassays included a negative control with DMSO and a positive control with CuSO4, a potent AF agent. After the exposure period, the anti-settlement activity was determined by the presence/absence of attached byssal threads produced by each individual larvae.
(§2) All compounds that caused more than 60% of settlement inhibition (≤40% of settlement) in the screening bioassay were considered active and selected for the determination of the semi-maximum response concentration that inhibited 50% of larval settlement (EC50), at compounds concentrations of 3.12, 6.25, 12.5, 25, 50, 100, 200 μM.
(§3) Datasets from anti-settlement, antibacterial and anti-microalgal bioassay, and determination of AChE and Tyr activities, were analysed by one-way analysis of variance (ANOVA) followed by a multi-comparisons Dunnett’s test against negative control (p < 0.05). For the AF bioassays, the half maximum response concentration (EC50) values for each compound, when applicable, were calculated using Probit regression analysis. Significance was considered at p < 0.01, and 95% lower and upper confidence limits (95%LCL; UCL). The software IBM SPSS Statistics 26 (Armonk, New York, USA) was used for statistical analysis.

[3] = system: Mytilus galloprovincialis plantigrade larvae; experiment: as above; format: in vivo; details: 15 h, 15 h exposure, read-out: EC50 (minimum concentration that inhibited 50% of larval settlement)
Experimental: as §1, §2, §3

Agaricus bisporus Tyr = experiment: In vitro tyrosinase (Tyr) inhibition assay (L-Dopa to dopachrome); format: biochemical
Experimental: (§4) The ability of the most promising compounds to inhibit AChE and Tyr was tested to assess their potential mode of action related with neurotransmission disruption or impairment of adhesive metabolism pathways, respectively.
Tyr inhibition assay was performed using Agaricus bisporus Tyr (EC1.14.18.1) according to Adhikari et al. (2008) with some modifications. The enzymatic reaction follows the catalytic conversion of L-Dopa to dopaquinone and the formation of dopachrome by measuring the absorbance at 475 nm. Briefly, Tyr (25 U/mL) was added to 50 mM phosphate buffer pH 6.5 and the tested compounds at 25, 50 and 100 μM (final concentrations, 1% DMSO). The enzymatic activity was triggered by the addition of L-dopa (25 mM). Kojic acid (1.4 mM, water) was included as positive control and 1% DMSO in water as negative control.

[4] = system: Roseobacter litoralis CECT 5395; experiment: Biofilm-forming marine bacteria growth inhibition; format: cell-based; details: 15 µM, 24 h, Dunnett test p < 0.05
Experimental: For anti-bacterial screening, five strains of marine biofilm-forming bacteria from the Spanish Type Culture Collection (CECT): Cobetia marina CECT 4278, Vibrio harveyi CECT 525, Halomonas aquamarina CECT 5000, Pseudoalteromonas atlantica CECT 570, and Roseobacter litoralis CECT 5395 were used. Bacteria were inoculated and incubated for 24 h at 26 °C in marine broth (Difco) at an initial density of 0.1 (OD600) in 96 well flat-bottom microtiter plates and exposed to the test compounds at 15 μM. Test solutions were obtained by dilution of the compounds stock solutions (50 mM) in DMSO. Bacterial growth inhibition in the presence of the compounds was determined in quadruplicate at 600 nm using a microplate reader (Biotek Synergy HT, Vermont, USA). Negative and positive controls used were a solution of marine broth with DMSO, and a solution of marine broth with penicillin–streptomycin–neomycin, respectively. […]
as §3, with “Significance was considered at p < 0.01, and 95% lower and upper confidence limits (95%LCL; UCL). The software IBM SPSS Statistics 26 (Armonk, New York, USA) was used for statistical analysis.” left out

Navicula sp. = experiment: Biofilm-forming marine diatom growth inhibition; format: cell-based; details: 10 days
Experimental: The anti-microalgal activity of the most promising compounds was also evaluated against a benthic marine diatom, Navicula sp., purchased from the (Telde, Gran Canaria) Spanish Collection of Algae (BEA). Diatom cells were inoculated in f/2 medium (Sigma) at an initial concentration of 2–4 × 10^6 cells mL^−1 and grown in 96-well flat-bottom microtiter plates for 10 days at 20 °C. Navicula growth inhibition in the presence of each compound at 15 μM was determined in quadruplicate and quantified based on the difference in cell densities among the treatments, and cells were counted using a Neubauer counting chamber. A positive control with cycloheximide (3.55 μM) and a negative control with f/2 medium 0.1% DMSO were included.
as §3

[5] = target: T1, Electrophorus electric AChE Type V-S (Electrophorus electricus, UniProt O42275); experiment: In vitro acetylcholinesterase (AChE) activity (Ellman); format: biochemical; details: 25, 50 and 100 μM; versus negative control, p < 0.05
T1 construct: purchased SIGMA C2888
T1 sequence (O42275 24-633): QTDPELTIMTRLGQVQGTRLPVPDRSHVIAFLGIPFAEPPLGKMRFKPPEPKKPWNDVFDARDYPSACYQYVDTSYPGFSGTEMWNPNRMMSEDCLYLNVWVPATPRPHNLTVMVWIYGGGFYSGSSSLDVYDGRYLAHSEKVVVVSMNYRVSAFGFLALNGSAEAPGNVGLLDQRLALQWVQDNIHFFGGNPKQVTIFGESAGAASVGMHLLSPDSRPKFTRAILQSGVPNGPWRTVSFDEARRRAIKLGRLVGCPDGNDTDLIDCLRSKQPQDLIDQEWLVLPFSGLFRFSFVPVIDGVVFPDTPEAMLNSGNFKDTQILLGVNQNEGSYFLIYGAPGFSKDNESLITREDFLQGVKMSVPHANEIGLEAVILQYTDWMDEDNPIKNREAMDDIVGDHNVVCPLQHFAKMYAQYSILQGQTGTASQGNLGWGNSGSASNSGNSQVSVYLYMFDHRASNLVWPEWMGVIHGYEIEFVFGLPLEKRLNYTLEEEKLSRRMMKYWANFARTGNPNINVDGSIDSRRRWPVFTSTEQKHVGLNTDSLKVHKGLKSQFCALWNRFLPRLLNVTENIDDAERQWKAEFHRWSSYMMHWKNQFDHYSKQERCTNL
Experimental: as §4
AChE activity was evaluated using Electrophorus electric AChE Type V-S (SIGMA C2888, E.C. 3.1.1.7), according to Ellman et al. (1961) with some modifications. Reaction solution containing 1 M phosphate buffer pH 7.2, 10 mM dithiobisnitrobenzoate (DTNB) (acid dithiobisnitrobenzoate and sodium hydrogen carbonate in phosphate buffer) and 0.075 M […] was added to pure AChE enzyme (0.25 U/mL) and each test compound (final concentration of 25, 50 and 100 μM, 1% DMSO) in quadruplicate. All tests included a positive control with eserine (200 μM, water) and a negative control with 1% DMSO in water. The optical density was measured at 412 nm in a microplate reader (Biotek Synergy HT, Winooski, Vermont, USA) during 5 min at 25 °C.

Artemia salina nauplii [6] = system: Artemia salina nauplii; parameters: method as in PMID 29936172; details: same concentrations (25 and 50 μM) and conditions; cited from earlier work

SMILES	LC50 at 15 h [2]	EC50 ([3]; 95% CI in cell)	EC50 [3]	also measured
COCOc1ccc(C(=O)/C=C/c2cc(OC)c(OC)c(OC)c2)c(O)c1	–	–	–	melting point: 132 to 134 °C
COc1ccc(-c2cc(=O)c3c(O)cc(OCc4cn([C@@H]5O[C@H](COC(C)=O)[C@@H](OC(C)=O)[C@H](OC(C)=O)[C@H]5OC(C)=O)nn4)cc3o2)cc1OC	–	–	–	melting point: 143 to 145 °C
COc1cc(-c2cc(=O)c3c(O)cc(OCc4cn([C@@H]5O[C@H](COC(C)=O)[C@@H](OC(C)=O)[C@H](OC(C)=O)[C@H]5OC(C)=O)nn4)cc3o2)cc(OC)c1OC	–	–	–	melting point: 169 to 171 °C
COc1cc(-c2cc(=O)c3c(O)cc(O)cc3o2)cc(OC)c1OC [1b]	> 200 µM	8.34 µM	–	mortality of Artemia salina nauplii (Artemia salina nauplii [1]): less than 10%; inhibition of Tyr (Agaricus bisporus Tyr; 100 µM): 23.5%; Tyr activity (Agaricus bisporus Tyr; all the concentrations tested (25, 50 and 100 μM), versus negative control): significantly decrease Tyr activity
COc1ccc(-c2cc(=O)c3c(O)cc(OCc4cn(CCO[C@@H]5O[C@H](COC(C)=O)[C@@H](OC(C)=O)[C@H](OC(C)=O)[C@H]5OC(C)=O)nn4)cc3o2)cc1OC [4a, (2R,3R,4S,5R,6R)-2-(acetoxymethyl)-6-(2-(4-(((2-(3,4-dimethoxyphenyl)-5-hydroxy-4-oxo-4H-chromen-7-yl)oxy)methyl)-1H-1,2,3-triazol-1-yl)ethoxy)tetrahydro-2H-pyran-3,4,5-triyl triacetate]	> 200 µM	42.6 µM	32.8 µg/mL	–
COc1cc(-c2cc(=O)c3c(O)cc(OCc4cn(CCO[C@@H]5O[C@H](COC(C)=O)[C@@H](OC(C)=O)[C@H](OC(C)=O)[C@H]5OC(C)=O)nn4)cc3o2)cc(OC)c1OC [4b, (2R,3R,4S,5R,6R)-2-(acetoxymethyl)-6-(2-(4-(((5-hydroxy-4-oxo-2-(3,4,5-trimethoxyphenyl)-4H-chromen-7-yl)oxy)methyl)-1H-1,2,3-triazol-1-yl)ethoxy)tetrahydro-2H-pyran-3,4,5-triyl triacetate]	> 200 µM	48.2 µM	38.6 µg/mL	–
C#CCOc1ccc(C(=O)/C=C/c2ccc(OC)c(OC)c2)c(O)c1 [6a]	> 200 µM	84.5 µM	28.6 µg/mL	bacterial growth inhibition screening [4]: significant inhibitory activity
C#CCOc1ccc(C(=O)/C=C/c2cc(OC)c(OC)c(OC)c2)c(O)c1 [6b]	> 200 µM	85.6 µM	31.5 µg/mL	bacterial growth inhibition screening [4]: significant inhibitory activity
COc1cc(/C=C/C(=O)c2ccc(OCc3cn([C@@H]4O[C@H](COC(C)=O)[C@@H](OC(C)=O)[C@H](OC(C)=O)[C@H]4OC(C)=O)nn3)cc2O)cc(OC)c1OC [7b, (2R,3R,4S,5R,6R)-2-(acetoxymethyl)-6-(4-((3-hydroxy-4-((E)-3-(3,4,5-trimethoxyphenyl)acryloyl)phenoxy)methyl)-1H-1,2,3-triazol-1-yl)tetrahydro-2H-pyran-3,4,5-triyl triacetate]	> 200 µM	3.28 µM	–	diatom growth inhibition screening (Navicula sp.; 15 μM, Dunnett test p < 0.05): significant inhibitory activity; EC50 (Navicula sp.; 240 h): 41.8 µM and 30.9 µg/mL; mortality of Artemia salina nauplii (Artemia salina nauplii [1]): less than 10%; AChE activity [5]: significantly induced
COc1ccc(/C=C/C(=O)c2ccc(OCc3cn(CCO[C@@H]4O[C@H](COC(C)=O)[C@@H](OC(C)=O)[C@H](OC(C)=O)[C@H]4OC(C)=O)nn3)cc2O)cc1OC [8a, (2R,3R,4S,5R,6R)-2-(acetoxymethyl)-6-(2-(4-((4-((E)-3-(3,4-dimethoxyphenyl)acryloyl)-3-hydroxyphenoxy)methyl)-1H-1,2,3-triazol-1-yl)ethoxy)tetrahydro-2H-pyran-3,4,5-triyl triacetate]	> 200 µM	35.8 µM	27.1 µg/mL	–
COc1cc(/C=C/C(=O)c2ccc(OCc3cn(CCO[C@H]4O[C@H](COC(C)=O)[C@@H](OC(C)=O)[C@H](OC(C)=O)[C@@H]4OC(C)=O)nn3)cc2O)cc(OC)c1OC [8b, (2R,3R,4S,5S,6S)-2-(acetoxymethyl)-6-(2-(4-((3-hydroxy-4-((E)-3-(3,4,5-trimethoxyphenyl)acryloyl)phenoxy)methyl)-1H-1,2,3-triazol-1-yl)ethoxy)tetrahydro-2H-pyran-3,4,5-triyl triacetate]	> 200 µM	53.9 µM	42.4 µg/mL	–
COc1ccc(/C=C/C(=O)c2ccc(O)cc2O)cc1OC [11a]	> 200 µM	18.1 µM	–	mortality of Artemia salina nauplii (Artemia salina nauplii [1]): less than 10%
COc1cc(/C=C/C(=O)c2ccc(O)cc2O)cc(OC)c1OC [11b]	> 200 µM	9.64 µM	–	mortality of Artemia salina nauplii (Artemia salina nauplii [1]): less than 10%; AChE activity [5]: significantly induced
N#Cc1c(-c2ccc(Cl)cc2)[nH]c(C(F)(F)F)c1Br [ECONEA]	–	–	–	lethality to Artemia salina (Artemia salina nauplii [6]): 100%
